Results on one substance are retold here after patent US20210038559A1, “CANNABINOIDS AND DERIVATIVES FOR PROMOTING IMMUNOGENICITY OF TUMOR AND INFECTED CELLS” (priority 2018, published 2021).

The subject of test [1] is MHC class I expression on COLO 205 cells. In words: MHC class I expression on COLO 205 cells, 24 hours, flow cytometry (W6/32). How it is done: FIG. 2A-2F. […] Cells were treated for 24 hours and cell surface MHC class I expression was measured by flow cytometry.
Cannabigerol was also tested for its capacity to induce MHC class I expression in a human colorectal carcinoma cell line, COLO 205. The cells were treated with either 25 μM or 50 μM cannabigerol for 24 hours. Fluorophor (Alexa Fluor 488)-conjugated W6/32 antibody (Thermo Fisher) was used in a flow cytometry assay to quantitate MHC class I expression. […] Cannabigerol is only one of many cannabinoid-like molecules with potential biopharmaceutical activity. […] COLO 205 cells were treated with up to 40 μM of the cannabinoids 1-5 presented in Tables 1 and 2 and evaluated for cell surface MHC class I expression as described above for cannabigerol.
(A flow cytometer gives signals particle by particle.)

The test system of test [2] is MHC-I expression, mouse cancer cell lines. In words: MHC-I expression restoration by IFN-γ in mouse cancer cell lines. Conditions: 48 hours. It counts as cell-based. The method, then: (§1) FIG. 3A-3B. […] MHC-I downregulation is reversible in the majority of human and mouse cancer cell lines.
(§2) MHC-I expression may be restored in cancers, such as those with intact antigen processing machinery (APM) genes. Various human and mouse cancer cell lines were treated with dose titrations of recombinant human and mouse IFN-γ, respectively. The cells were incubated with IFN-γ for 48 hours in a humidified chamber at 37° C., stained with fluorescent haplotype-appropriate MHC-I antibody, then signal was determined by flow cytometry. Cancers represented in this experiment include brain (SK-N-MC), breast (4T1, EMT6), colorectal (COLO 205, SNU-C1, DLD-1, LS123, LS411N, LoVo, CT26, MC38), kidney (Renca), lung (NCI-H146, LLC), lymphoid (A20), and skin (A431, SK-MEL-2, B16F10). IFN-γ induced MHC-I expression in a dose-dependent manner in 6/10 (60%) human and 6/9 mouse (67%) cell lines. […] The results are found in FIGS. 3A-3B.

In test [3] the test system is MHC-I expression, human cancer cell lines. In words: MHC-I expression restoration by IFN-γ in human cancer cell lines. It counts as cell-based. Conditions: 48 hours. The method, then:
as §1, §2

Consider “Interferon-γ: a natural cytokine known to stimulate MHC class I expression in many mammalian cells”, for which the MFI came to 119 in test [1] (COLO 205, 0.004 ng/mL); 193 in test [1] (COLO 205, 0.012 ng/mL); 250 in test [1] (COLO 205, 0.040 ng/mL); 321 in test [1] (COLO 205, 0.110 ng/mL); 483 in test [1] (COLO 205, 1.000 ng/mL); 482 in test [1] (COLO 205, 3.000 ng/mL). For the same substance, the “increase in MHC class I expression (maximum)” value in test [1] (COLO 205, interferon-γ reference) is listed as at most 4 fold. Besides, the figures for the “cell lines with dose-dependent induction of MHC-I expression” value in test [2] and in test [3] were 6/9 and 6/10, respectively.
